These results are taken from patent US4803227A, “Aminoalkyl ethers of phenols as anticancer agents for the breast and colon” (The University of Manitoba, priority 1984, dated 1989).

The target in data set [1] is AEBS (anti-estrogen binding site), MCF-7 microsomes. In words: competition with [3H]-tamoxifen for AEBS, MCF-7 microsomes. Also noted: species or system human. Conditions: for IC50: read-out: RSBA (M) for AEBS, MCF-7 microsomes. The text has this: (§1) *Relative specific binding affinity (RSBA) is the concentration of cold
(§2) competitor required to displace 50% of the specifically bound label and
(§3) expresses the affinity of the test compound for the receptor relative to
(§4) that of the labelled specific ligand, in this instance 1.5 ×

Data set [2] concerns MCF-7 human breast cancer cells. In words: cells. Conditions: for IC90: Homo sapiens, MCF7, 168 h, read-out: D10 (concentration required to effect a 90% reduction in the number of MCF7 cells). As for the experimental part:
Concentrations are shown on the x-axis. […] A longer exposure time (10 days) was employed because this cell line is slower growing than the MCF-7 cell line.
In the case of MCF-7 cells, approximately 2×10^4 MCF-7 cells were seeded into duplicate 25 cm tissue culture flasks containing Dulbecco's modified Eagle's medium supplemented with insulin (10 μg/ml), glucose ([…])and 5% dextran coated charcoal-stripped fetal calf serum to which was added increasing concentrations of the compound to be tested. Cells were allowed to grow for 7 days with one change of medium containing the test compound on day 4. […] Total cell number at each concentration was determined by Coulter counter. […] D (that concentration required to elicit a 90% reduction in cell number relative to the control after 7 days of treatment) was determined for each compound.

The subject of data set [3] is estrogen receptor (ER). In words: competition with [3H] 17 β-estradiol for ER. It is filed as binding.
Data set [4] addresses AEBS (anti-estrogen binding site), rat liver microsomes. Kind of data set: competition with [3H]-tamoxifen for AEBS, rat liver microsomes. Conditions: concentration of cold competitor required to displace 50% of specifically bound label, 1.5 × 10^-9 M [3H]-tamoxifen; read-out: RSBA (M) for AEBS, Rat liver microsomes.
Excerpt: as §1, §2, §3, §4
For orientation: Liver microsomes are vesicles of endoplasmic reticulum, rich in cytochrome P450 enzymes.

The subject of data set [5] is progesterone receptor (PgR) in MCF-7 cells. Kind of data set: induction of progesterone receptor (PgR) synthesis in MCF-7 cells. Conditions: 5 days of pre-incubation, 1×10^-8 M. It is filed as cell-based, human.
Data set [6] concerns colon carcinoma (3C872). In words: colon tumor test in female rats implanted with colon carcinoma (3C872). It is filed as in vivo. Conditions: for Tumor wt % of Controls / Tumor Evaluation (wt. mg): intramuscular, twice daily for 7 days; for Tumor Evaluation (wt. mg): control 2261. On the procedure: The rats had been subcutaneously implanted with colon carcinoma (3C872) and were cancerous. […] The wt. of the tumor was measured after the 7-day treatment and reported as a % (average) of the control tumor wt. (average) using 40 control rats.

Data set [7] deals with MCF-7 cells. The settings on record: 7 days; for reversal of growth inhibition by estradiol: 1×10^-8 M estradiol; for inhibition of growth of MCF-7 cells: tamoxifen 5×10^-7 M, N,N-DPPE 1x-8x tamoxifen concentration.
For data set [8] the following is noted: literature; cited from earlier work.
For data set [9], the system named is estrogen receptor (ER). Conditions: literature; cited from earlier work.
Where [10] appears, read: concentration of cold competitor required to displace 50% of specifically bound label, 1.5 × 10^-9 M [3H]-tamoxifen.
The mark [11] stands for this setting: microsome preparation not given.

Structures can show the parent of a compound that is named as a salt. Where two headings read alike, the source gives them in different places. A value given as a limit tells only on which side of the number the result lay.

As for `c1ccc(Cc2ccc(OCCN3CCOCC3)cc2)cc1` [MPPE, N-morpholino-2-[(4-phenylmethyl)phenoxy]ethanamine hydrochloride], in data set [1] (setting [10]), the IC50 was found to be 6.6e-07 M. Moreover, in data set [1] (setting [11]), the “binding to AEBS” value is given as “bind significantly to AEBS”. In addition, the IC90 in [2] is 16 µM. Also, in data set [3], the “binding to ER” value was “only weakly to ER”.
In the case of `CCN(CC)CCOc1ccccc1` [N,N-DPEA, N,N-diethyl-2-phenoxyethylamine hydrochloride, reference compound], the IC50 in [1] (setting [10]) was 8e-05 M; in data set [4], 4e-05 M. For the same compound, in data set [2], the IC90 was determined as 1100 µM.
As to `CCN(CC)CCOc1ccc(Cc2ccccc2)cc1` [N,N-DPPE, N,N-diethyl-2-[(4-phenylmethyl)phenoxy]ethanamine hydrochloride], the figures for the IC50 in data set [1] (setting [10]) and in data set [4] were 7e-07 M and 4e-08 M, respectively. In addition, the “binding to AEBS” value in data set [1] (setting [11]) is “bind significantly to AEBS”. In [2], the IC90 came out at 16 µM. Besides, the “induction of PgR synthesis above control levels” value in data set [5] is listed as “failure to induce significant syn thesis of progesterone receptor (PgR) above control levels”. In addition, the results for the “Tumor wt % of Controls” value in data set [6] (8.00 mg/kg per injection), in data set [6] (16.00 mg/kg per injection) and in data set [6] (32.00 mg/kg per injection) were 80%, 99% and 68%, respectively. The “Tumor Evaluation (wt. mg)” value in data set [6] (8.00 mg/kg per injection) turned out to be 1817 mg; in data set [6] (16.00 mg/kg per injection), 2259 mg; in data set [6] (32.00 mg/kg per injection), 1557 mg. Besides, in data set [6] (32 mg/kg, 7 days), the “reduction in tumor growth” value was 30%. The optimal dosage in [6] (7-day test) is 30 to 40 mg/kg. For the same compound, in [6] (above 60 mg/kg), the “results at higher doses” value was “results became poorer”. In addition, the “reversal of growth inhibition by estradiol” value in [7] is “no significant reversal of its effect by estradiol”. The “inhibition of growth of MCF-7 cells” value in [7] (absence of estradiol) is given as “significant growth inhibition, but in all cases, less than that for tamoxifen”; in data set [7] (presence of estradiol), “significantly (P<0.001) more inhibition than tamoxifen”.
`CN(C)CCOc1ccccc1Cc1ccccc1` [Phenyltoloxamine, N,N-dimethyl-2[(2-phenylmethyl)phenoxy]ethanamine, reference compound]: the IC50 in data set [4] is 2e-06 M. Further, the IC90 in data set [2] was 48 µM. Moreover, the “concentrations at which compound becomes significantly cytotoxic for MCF-7 cells” value in data set [2] (human, 10080 min) was over 100 µM. Besides, the “anti-histamine effects” value in data set [8] was “pronounced anti-histamine effects”.
For `CC/C(=C(\c1ccccc1)c1ccc(OCCN(C)C)cc1)c1ccccc1` [Tamoxifen, 1-(p-β-dimethylaminoethoxyphenyl)-trans-1,2-diphenylbut-1-ene, reference compound], in [2], the IC90 came to 4.8 µM. Besides, the “reversal of growth inhibition by estradiol” value in [7] is “largely but not completely reversed by the addition of 1×10^-8 M estradiol”. For the same compound, in data set [7] (absence of estradiol), the “inhibition of growth of MCF-7 cells” value is “Significant inhibition”. In [9], the “competition for the estrogen receptor” value is listed as “compete for the estrogen receptor (ER)”.
Regarding `C(=C(c1ccccc1)c1ccccc1)c1ccccc1` [Triphenylethylene, triphenylethylene, reference compound], in data set [1] (at all concentrations tested, microsome preparation not given), the “competition with [3H]-tamoxifen for AEBS” value was “fails to compete with [^3 H]-tamoxifen for AEBS”. Moreover, the “RSBA (M) for AEBS, MCF-7 microsomes” value in data set [1] (setting [10]) was “No affinity”. In data set [2], the “cytotoxic effect on MCF-7 cells” value is “no cytotoxic effect on MCF-7 cells after 7 days of exposure”. Also, the “D10 (concentration required to effect a 90% reduction in the number of MCF7 cells)” value in data set [2] (7 days of exposure) is on record as “No effect”. For the same compound, in [3] (at higher concentrations), the “competition with [3H] 17 β-estradiol for ER” value was “competes with [^3 H] 17 β-estradiol for ER”.
